Patent publication US20230022724A1, “NOVEL IMIDAZOPYRAZINE DERIVATIVES” (Hoffmann-La Roche Inc., priority 2018, published 2023)
Where a name gives a salt, the structure may show the parent alone.

What follows are molecules tested on Acinetobacter baumannii ATCC17978 (assay: Antimicrobial susceptibility testing: 90% growth inhibitory concentration (IC90) determination). Settings: 90% growth inhibitory concentration, Acinetobacter baumannii ATCC17978, Iso-Sensitest broth, OD 600 nm over 16 h; hydrochloride; read-out: ATCC17978 IC90.
Format: cell-based
Method: The in vitro antimicrobial activity of the compounds was determined according to the following procedure:
The assay used a 10-points Iso-Sensitest broth medium to measure quantitatively the in vitro activity of the compounds against Acinetobacter baumannii ATCC17978 and Acinetobacter baumannii ATCC17961.
Stock compounds in DMSO were serially twofold diluted (e.g. range from 50 to 0.097 μM final concentration) in 384 wells microtiter plates and inoculated with 49 μl the bacterial suspension in Iso-Sensitest medium to have a final cell concentration of ˜5×10^(5) CFU/ml in a final volume/well of 50 ul/well. Microtiter plates were incubated at 35±2° C.
Bacterial cell growth was determined with the measurement of optical density at λ=600 nm each 20 minutes over a time course of 16 h. Growth inhibition was calculated during the logarithmic growth of the bacterial cells with determination of the concentration inhibiting 50% (IC50) and 90% (IC90) of the growth.
Table 1 provides the 90% growth inhibitory concentrations (IC90) in micromoles per liter of the compounds of present invention obtained against the strain Acinetobacter baumannii ATCC17978 and Acinetobacter baumannii ATCC17961.
`COc1ccc(-c2cnc3c(Nc4ccc(C(=O)N5CCC(C(=O)NCC6CNC6)CC5)c(Cl)c4)nccn23)cc1F` [Example 54, N-(azetidin-3-ylmethyl)-1-[2-chloro-4-[[3-(3-fluoro-4-methoxyphenyl)imidazo[1,2-a]pyrazin-8-yl]amino]benzoyl]piperidine-4-carboxamide;hydrochloride] gave an IC90 of 130 nM.

Same assay, conditions: 90% growth inhibitory concentration, Acinetobacter baumannii ATCC17978, Iso-Sensitest broth, OD 600 nm over 16 h; read-out: ATCC17978 IC90
`CNCC(=O)N1CCN(C(=O)c2ccc(Nc3nccn4c(-c5ccc(OC)c(F)c5)cnc34)cc2Cl)CC1` [Example 40, 1-(4-(2-chloro-4-((3-(3-fluoro-4-methoxyphenyl)imidazo [1,2-a]pyrazin-8-yl)amino)benzoyl)piperazin-1-yl)-2-(methylamino)ethanone] gave an IC90 of 150 nM.

Same assay, conditions: Acinetobacter baumannii, ATCC17978, 16 h, 90% growth inhibitory concentration, Acinetobacter baumannii ATCC17978, Iso-Sensitest broth, OD 600 nm over 16 h; read-out: ATCC17978 IC90
`N#Cc1cc(Nc2nccn3c(-c4ccc(OC(F)F)cc4)cnc23)ccc1C(=O)N1CCC(CN)CC1` [Example 27, 2-(4-(aminomethyl)piperidine-1-carbonyl)-5-((3-(4-(difluoromethoxy)phenyl)imidazo[1,2-a]pyrazin-8-yl)amino)benzonitrile] showed an IC90 of 1500 nM.
Work on `COc1ccc(-c2cnc3c(Nc4ccc(C(=O)N5CCC(O)(CCN(C)C)CC5)c(Cl)c4)nccn23)cc1F` [Example 28, (2-chloro-4-((3-(3-fluoro-4-methoxyphenyl)imidazo[1,2-a]pyrazin-8-yl)amino)phenyl)(4-(2-(dimethylamino)ethyl)-4-hydroxypiperidin-1-yl)methanone] yielded an IC90 of 140 nM.
In the case of `N#CCOc1ccc(-c2cnc3c(Nc4ccc(C(=O)N5CCC(C(=O)N6CCNCC6CO)CC5)c(Cl)c4)nccn23)c(F)c1F` (centres unmarked) [Example 30, 2-[4-[8-[3-chloro-4-[4-[2-(hydroxymethyl)piperazine-1-carbonyl]piperidine-1-carbonyl]anilino]imidazo[1,2-a]pyrazin-3-yl]-2,3-difluoro-phenoxy]acetonitrile trifluoroacetate], the IC90 is reported as 190 nM.
With `N#CCOc1ccc(-c2cnc3c(Nc4ccc(C(=O)N5CCC(C(=O)N6CCNCC6CO)CC5)c(Cl)c4)nccn23)c(Cl)c1F` (centres unmarked) [Example 31, 2-[3-chloro-4-[8-[3-chloro-4-[4-[2-(hydroxymethyl)piperazine-1-carbonyl]piperidine-1-carbonyl]anilino]imidazo[1,2-a]pyrazin-3-yl]-2-fluoro-phenoxy]acetonitrile trifluoroacetate] the IC90 was 320 nM.
With `CNCCNC(=O)C1CCN(C(=O)c2ccc(Nc3nccn4c(-c5ccc(OCC#N)c(F)c5F)cnc34)cc2Cl)CC1` [Example 32, 1-[2-chloro-4-[[3-[4-(cyanomethoxy)-2,3-difluoro-phenyl]imidazo[1,2-a]pyrazin-8-yl]amino]benzoyl]-N-[2-(methylamino)ethyl]piperidine-4-carboxamide trifluoroacetate] the IC90 was 300 nM.
For `N#CCOc1ccc(-c2cnc3c(Nc4ccc(C(=O)N5CCN(C(=O)N6CCN[C@@H](CO)C6)CC5)c(Cl)c4)nccn23)c(F)c1F` [Example 36, 2-[4-[8-[3-chloro-4-[4-[(3R)-3-(hydroxymethyl)piperazine-1-carbonyl]piperazine-1-carbonyl]anilino]imidazo[1,2-a]pyrazin-3-yl]-2,3-difluoro-phenoxy]acetonitrile], the IC90 was 41 nM.
`COc1ccc(-c2cnc3c(Nc4ccc(C(=O)N5CCOCC5)cc4)nccn23)cc1Cl` [Example 38, (4-((3-(3-chloro-4-methoxyphenyl)imidazo[1,2-a]pyrazin-8-yl)amino)phenyl)(morpholino)methanone] gave an IC90 of 570 nM.
Work on `COc1ccc(-c2cnc3c(Nc4ccc(C(=O)N5CCC(C(=O)N[C@@H]6CCNC6)CC5)c(Cl)c4)nccn23)c(F)c1F` [Example 39, (R)-1-(2-chloro-4-((3-(2,3-difluoro-4-methoxyphe-nyl)imida-zo[1,2-a]pyrazin-8-yl)amino)benzoyl)-N-(pyrrolidin-3-yl)piperidine-4-carboxamide hydrochloride] yielded an IC90 of 200 nM.
Work on `COc1ccc(-c2cnc3c(Nc4ccc(C(=O)N5CCN(CCNCCO)CC5)c(Cl)c4)nccn23)cc1F` [Example 43, (2-Chloro-4-((3-(3-fluoro-4-methoxyphenyl)imidazo[1,2-a]pyrazin-8-yl)amino)phenyl)(4-(2-((2-hydroxyethyl)amino)ethyl)piperazin-1-yl)methanone] yielded an IC90 of 140 nM.
`NCC1CCN(C(=O)c2ccc(Nc3nccn4c(-c5ccc(OC(F)F)cc5)cnc34)cc2I)CC1` [Example 51, [4-(aminomethyl)piperidin-1-yl]-[4-[[3-[4-(difluoromethoxy)phenyl]imidazo[1,2-a]pyrazin-8-yl]amino]-2-iodophenyl]methanone; hydrochloride] was tested, and the IC90 was 230 nM.
`COc1ccc(-c2cnc3c(Nc4ccc(C(=O)N5CCN(CCN(C)C)CC5)c(Cl)c4)nccn23)cc1F` [Example 55, [2-chloro-4-[[3-(3-fluoro-4-methoxyphenyl)imidazo[1,2-a]pyrazin-8-yl]amino]phenyl]-[4-[2-(dimethylamino)ethyl]piperazin-1-yl]methanone;hydrochloride] was tested, and the IC90 was 140 nM.

Same assay, conditions: Acinetobacter baumannii, ATCC17978, 16 h, read-out: ATCC17978 IC90
For `N#CCOc1ccc(-c2cnc3c(Nc4ccc(C(=O)N5CCN(C(=O)[C@@H]6C[C@@H](O)CN6)CC5)c(Cl)c4)nccn23)c(F)c1F` [Example 34, 2-[4-[8-[3-chloro-4-[4-[(2S,4R)-4-hydroxypyrrolidine-2-carbonyl]piperazine-1-carbonyl]anilino]imidazo [1,2-a]pyrazin-3-yl]-2,3-difluroo-phenoxy]acetonitrile formate], the IC90 was 31 nM.
Molecule `CC(C#N)Oc1ccc(-c2cnc3c(Nc4ccc(C(=O)N5CCN(CCN(C)C)CC5)c(Cl)c4)nccn23)c(F)c1F` (centres unmarked) [Example 41, 2-[4-[8-[3-chloro-4-[4-[2-(dimethylamino)ethyl]piperazine-1-carbonyl]anilino]imi-dazo[1,2-a]pyrazin-3-yl]-2,3-difluoro-phenoxy]propanenitrile formate] has an IC90 of 130 nM.
Molecule `CC(C#N)Oc1ccc(-c2cnc3c(Nc4ccc(C(=O)N5CCN(CCCN(C)C)CC5)c(Cl)c4)nccn23)c(F)c1F` (centres unmarked) [Example 42, 2-[4-[8-[3-chloro-4-[4-[3-(dimethylamino)pro-pyl]piperazine-1-carbonyl]anilino]imi-dazo[1,2-a]pyrazin-3-yl]-2,3-difluoro-phenoxy]propanenitrile] has an IC90 of 200 nM.
`CNCCNC(=O)C1CCN(C(=O)c2ccc(Nc3nccn4c(-c5ccc(OC)c(F)c5)cnc34)cc2Br)CC1` [Example 44, 1-(2-bromo-4-((3-(3-fluoro-4-methoxyphenyl)imidazo[1,2-a]pyrazin-8-yl)amino)benzoyl)-N-(2-(methylamino)ethyl)piperidine-4-carboxamide; Formic Acid] was tested, and the IC90 was 300 nM.
With `N#CCOc1ccc(-c2cnc3c(Nc4ccc(C(=O)N5CCC(C(=O)N6CCN[C@H](C(=O)O)C6)CC5)c(Cl)c4)nccn23)c(F)c1F` [Example 45, (2S)-4-[1-[2-chloro-4-[[3-[4-(cyanomethoxy)-2,3-difluoro-phenyl]imidazo[1,2-a]pyrazin-8-yl]amino]benzoyl]piperidine-4-carbonyl]piperazine-2-carboxylic Acid; Formic Acid] the IC90 was 880 nM.
Work on `N#CCOc1ccc(-c2cnc3c(Nc4ccc(C(=O)N5CCC(C(=O)N6CCN[C@@H](C(=O)O)C6)CC5)c(Cl)c4)nccn23)c(F)c1F` [Example 46, (R)-4-(1-(2-chloro-4-((3-(4-(cyanomethoxy)-2,3-difluorophenyl)imidazo[1,2-a]pyrazin-8-yl)amino)benzoyl)piperidine-4-carbonyl)piperazine-2-carboxylic Acid; Formic Acid] yielded an IC90 of 890 nM.
`N#CCOc1ccc(-c2cnc3c(Nc4ccc(C(=O)N5CCN(CCN6CCC(C(=O)O)C6)CC5)c(Cl)c4)nccn23)c(F)c1F` (centres unmarked) [Example 47, 1-[2-[4-[2-chloro-4-[[3-[4-(cyanomethoxy)-2,3-difluoro-phenyl]imidazo[1,2-a]pyrazin-8-yl]amino]benzoyl]piperazin-1-yl]ethyl]pyrrolidine-3-carboxylic Acid Trifluoroacetate] gave an IC90 of 430 nM.
`COc1ccc(-c2cnc3c(Nc4ccc(C(=O)N5CCC(C(=O)N6CCOC(CN)C6)CC5)c(Cl)c4)nccn23)cc1F` (centres unmarked) [Example 52, [4-[2-(aminomethyl)morpholine-4-carbonyl]piperidin-1-yl]-[2-chloro-4-[[3-(3-fluoro-4-methoxyphenyl)imidazo[1,2-a]pyrazin-8-yl]amino]phenyl]methanone; hydrochloride] was tested, and the IC90 was 88 nM.
Molecule `CNCC(=O)N1CCN(C(=O)c2ccc(Nc3nccn4c(-c5ccc(OC)c(F)c5F)cnc34)cc2Cl)CC1` [Example 53, 1-[4-[2-chloro-4-[[3-(2,3-difluoro-4-methoxyphenyl)imidazo[1,2-a]pyrazin-8-yl]amino]benzoyl]piperazin-1-yl]-2-(methylamino)ethanone; hydrochloride] has an IC90 of 56 nM.
With `COc1ccc(-c2cnc3c(Nc4ccc(C(=O)N5CCN(C(=O)C(O)CN)CC5)c(Cl)c4)nccn23)cc1F` (centres unmarked) [Example 56, 3-amino-1-[4-[2-chloro-4-[[3-(3-fluoro-4-methoxyphenyl)imidazo[1,2-a]pyrazin-8-yl]amino]benzoyl]piperazin-1-yl]-2-hydroxypropan-1-one; hydrochloride] the IC90 was 240 nM.
